Test results taken from patent publication US8298543B2, “Identification and application of antibiotic synergy” (priority 2005, dated 2012).

Columns and labels:
[1] = tested on: B. anthracis murB-2 antisense strain
[2] = tested on: S. aureus engineered with murB antisense; assay type: cell-based, Staphylococcus aureus

Compound	IC50 shift (ratio of EC50 with and without xylose) [1]	change of potency / sensitivity in presence of inducer [2]
CO/N=C(\C(=O)N[C@@H]1C(=O)N2C(C(=O)O)=C(COC(C)=O)CS[C@H]12)c1csc(N)n1 [cefotaxime]	343	–
CO[C@@]1(NC(=O)Cc2cccs2)C(=O)N2C(C(=O)O)=C(COC(N)=O)CS[C@@H]21 [cefoxitin]	–	increase in potency
Cc1onc(-c2c(Cl)cccc2Cl)c1C(=O)N[C@@H]1C(=O)N2[C@@H]1SC(C)(C)[C@@H]2C(=O)O [dicloxacillin]	–	increase in potency
